Read-outs that look alike come from different tables or passages of the source. Marks after values point to notes of the source that are not given here. Each block holds one compound with its values, some of them ahead of it.
What was measured:
[1] = molecular target: T1, human serum albumin (HSA) (Homo sapiens, UniProt P02768); test: Differential scanning calorimetry (DSC), thermal stability of HSA–ligand complexes; settings: for Tm: DSC, HSA 50 μM, ligand 500 μM, 50 mM sodium phosphate pH 6.8, HSA alone 68.6 ± 0.1; for ΔTm at 500 µM: human, pH 6.8
T1 sequence (P02768 25-609): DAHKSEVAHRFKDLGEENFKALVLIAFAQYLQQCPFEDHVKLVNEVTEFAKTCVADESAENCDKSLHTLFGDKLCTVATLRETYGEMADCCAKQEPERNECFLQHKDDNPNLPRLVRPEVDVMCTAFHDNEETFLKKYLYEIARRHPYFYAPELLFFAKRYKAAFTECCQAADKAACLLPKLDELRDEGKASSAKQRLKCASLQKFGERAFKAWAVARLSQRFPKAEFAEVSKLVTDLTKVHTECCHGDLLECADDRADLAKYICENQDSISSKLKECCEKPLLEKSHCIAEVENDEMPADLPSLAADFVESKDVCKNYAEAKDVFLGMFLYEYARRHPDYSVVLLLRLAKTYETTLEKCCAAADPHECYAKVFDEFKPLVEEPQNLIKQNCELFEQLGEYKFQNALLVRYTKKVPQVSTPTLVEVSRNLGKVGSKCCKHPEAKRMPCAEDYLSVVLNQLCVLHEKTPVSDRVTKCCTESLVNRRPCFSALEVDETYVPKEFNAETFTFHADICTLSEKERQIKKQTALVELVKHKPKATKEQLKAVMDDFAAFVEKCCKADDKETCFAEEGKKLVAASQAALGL
Experimental: The thermal stabilities of HSA and the HSA–ligand complexes were determined by differential scanning calorimetry in a VP-DSC autosampler instrument (GE Healthcare). The cell was heated from 303 to 363 K at a rate of 1 K min^−1. The concentrations of HSA and the ligands were 50 and 500 μM, respectively, in a buffer composed of 50 mM sodium phosphate (pH 6.8). The data analysis was carried out with the Origin software (ver. 7) using a two-state model.

[2] = molecular target: T1, human serum albumin (HSA); test: Isothermal titration calorimetry (ITC) of binding of catechins and analogs to HSA; set-up: purchased Sigma-Aldrich Japan (Tokyo, Japan); settings: for change of binding affinity with addition of 0.2 M NaCl: 0.2 M NaCl versus no NaCl
Experimental: The binding of the catechins and its analogs to HSA was examined in a VP-ITC instrument (Microcal Northampton, MA). […] The data were analyzed with the Origin software (ver. 7) by means of a single-binding-site model. The thermodynamic parameters were obtained from three replicate titrations, where the dilution heats of the ligands were subtracted.

site I of HSA = molecular target: T2, site I of HSA (Homo sapiens, UniProt P02768); test: ITC competition assay with warfarin (site I marker); format: binding; settings: HSA 50 μM, catechin 500 μM, warfarin 500 μM titrated, pH 6.8, 1% DMSO
T2 construct: purchased Sigma-Aldrich Japan (Tokyo, Japan)
T2 sequence (P02768 25-609): as above
Experimental: To obtain information about the HSA binding site of catechins, we carried out competition assays using ITC. Warfarin was used as a marker for monitoring site I of HSA. […] Warfarin was titrated into the cell containing either HSA or an HSA-EGCg complex at 180-s intervals with constant stirring at 307 rpm. The total amount of heat obtained for each measurement was taken as the total heat quantity (ΔQ), and we verified whether warfarin and the catechins bound to the same site by comparing the ΔQ from the interaction between HSA and warfarin. The binding inhibition rate was defined by the equation belowcalculated as follows: […]

[3] = human serum albumin (HSA) 50 µM in buffer
[4] = S1 Table, ITC binding affinity listed beside Tm, read-out: KD
[5] = Table 1, ITC, 298 K, 50 mM sodium phosphate pH 6.8
[6] = Table 1, ITC, 298 K, 50 mM sodium phosphate pH 6.8, HSA 50 μM, single-binding-site model
[7] = Table 1, ITC, 298 K, 50 mM sodium phosphate pH 6.8, read-out: KD
[8] = S2 Table, NaCl 0.2 M, read-out: KD
[9] = Table 2, methylated catechin derivatives, ITC, 298 K

Tm [1]: 68.5 ± 0.1 °C | ΔTm at 500 µM [1, 3]: -0.1 °C | Kd [2, 4]: 5 ± 8.6 µM | ΔH/ΔG ([2]; Table 1, ITC, 298 K): 4% | ΔG [2, 5]: -7.1 ± 0.6 kcal/mol | ΔH [2, 5]: -0.3 ± 0.1 kcal/mol | −TΔS [2, 5]: -6.8 ± 0.7 kcal/mol | N (number of binding sites) [2, 6]: 1.0 ± 0.2 | Kd [2, 7]: 5 ± 8.6 µM
SMILES: Oc1cc(O)c2c(c1)O[C@@H](c1ccc(O)c(O)c1)[C@H](O)C2 [C, (+)-catechin]

Tm [1]: 68.7 ± 0.3 °C | ΔTm at 500 µM [1, 3]: 0 °C | change of binding affinity with addition of 0.2 M NaCl ([2]; ITC): increased | thermodynamic profile of binding (enthalpy-driven or entropy-driven) ([2]; ITC, 298 K): entropy-driven | Kd [2, 4]: 49 ± 18 µM | Kd ([2]; S2 Table, NaCl 0 M, read-out: KD): 48.7 µM | Kd [2, 8]: 0.7 µM | ΔH/ΔG ([2]; Table 1, ITC, 298 K): 13% | ΔG [2, 5]: -5.8 ± 0.2 kcal/mol | ΔH [2, 5]: -0.8 ± 0.2 kcal/mol | −TΔS [2, 5]: -5.1 ± 0.4 kcal/mol | N (number of binding sites) [2, 6]: 1.0 ^b | Kd [2, 7]: 49 ± 18 µM
SMILES: Oc1cc(O)c2c(c1)O[C@H](c1ccc(O)c(O)c1)[C@H](O)C2 [EC, (−)-epicatechin]

Tm [1]: 72.2 ± 0.1 °C | ΔTm at 500 µM [1, 3]: 3.5 °C | change of binding affinity with addition of 0.2 M NaCl ([2]; ITC): decreased | thermodynamic profile of binding (enthalpy-driven or entropy-driven) ([2]; ITC, 298 K): enthalpy-driven | Kd [2, 4]: 1.1 ± 0.1 µM | Kd [2, 8]: 3.7 µM | ΔH/ΔG ([2]; Table 1, ITC, 298 K): 63% | ΔG [2, 5]: -8.1 ± 0.1 kcal/mol | ΔH [2, 5]: -5.1 ± 0.5 kcal/mol | −TΔS [2, 5]: -3.1 ± 0.5 kcal/mol | N (number of binding sites) [2, 6]: 1.0 ± 0.1 | Kd [2, 7]: 1.1 ± 0.1 µM
SMILES: O=C(O[C@@H]1Cc2c(O)cc(O)cc2O[C@@H]1c1ccc(O)c(O)c1)c1cc(O)c(O)c(O)c1 [ECg, (−)-epicatechin gallate]

Second part, the compound before the results:

SMILES: O=C(O[C@@H]1Cc2c(O)cc(O)cc2O[C@H]1c1ccc(O)c(O)c1)c1cc(O)c(O)c(O)c1 [Cg, (−)-catechin gallate]
Tm [1]: 71.7 ± 0.1 °C | ΔTm at 500 µM [1, 3]: 3.1 °C | thermodynamic profile of binding (enthalpy-driven or entropy-driven) ([2]; ITC, 298 K): entropy-driven | Kd [2, 4]: 3.5 ± 0.5 µM | ΔH/ΔG ([2]; Table 1, ITC, 298 K): 38% | ΔG [2, 5]: -7.4 ± 0.1 kcal/mol | ΔH [2, 5]: -2.8 ± 0.6 kcal/mol | −TΔS [2, 5]: -4.6 ± 0.7 kcal/mol | N (number of binding sites) [2, 6]: 1.0 ± 0.1 | Kd [2, 7]: 3.5 ± 0.5 µM

SMILES: Oc1cc(O)c2c(c1)O[C@H](c1cc(O)c(O)c(O)c1)[C@H](O)C2 [EGC, (−)-epigallocatechin]
binding site compared with warfarin (site I of HSA): identical | Tm [1]: 68.8± 0.2 °C | ΔTm at 500 µM [1]: 0.2 °C | change of binding affinity with addition of 0.2 M NaCl ([2]; ITC): increased | thermodynamic profile of binding (enthalpy-driven or entropy-driven) ([2]; ITC, 298 K): entropy-driven | Kd ([2]; KD, S1 Table, ITC binding affinity listed beside Tm): 20 ± 16 µM | Kd ([2]; KD, S2 Table, NaCl 0 M): 19.5 µM | Kd ([2]; KD, S2 Table, NaCl 0.2 M): 6.7 µM | Kd ([2]; KD, Table 1, ITC, 298 K, 50 mM sodium phosphate pH 6.8): 20 ± 16 µM | ΔH/ΔG ([2]; Table 1, ITC, 298 K): 10% | ΔG [2, 5]: -6.3 ± 0.4 kcal/mol | ΔH [2, 5]: -0.6 ± 0.4 kcal/mol | −TΔS [2, 5]: -5.8 ± 0.7 kcal/mol | N (number of binding sites) [2, 6]: 1.0 ± 0.2

SMILES: O=C(O[C@@H]1Cc2c(O)cc(O)cc2O[C@@H]1c1cc(O)c(O)c(O)c1)c1cc(O)c(O)c(O)c1 [EGCg, (−)-epigallocatechin gallate]
binding site compared with warfarin (site I of HSA): identical | Tm [1]: 71.4 ± 0.3 °C | ΔTm at 500 µM [1, 3]: 2.7 °C | change of binding affinity with addition of 0.2 M NaCl ([2]; ITC): decreased | thermodynamic profile of binding (enthalpy-driven or entropy-driven) ([2]; ITC, 298 K): enthalpy-driven | Kd [2, 4]: 2.2 ± 0.3 µM | Kd [2, 8]: 27.3 µM | N ([2]; S3 Table, temperature 288 K): 1.1±0.1 | ΔG ([2]; S3 Table, temperature 288 K): -7.4 ± 0.1 kcal/mol | ΔH ([2]; S3 Table, temperature 288 K): -3.9 ± 0.5 kcal/mol | −TΔS ([2]; S3 Table, temperature 288 K): -3.5 ± 0.5 kcal/mol | Kd ([2]; S3 Table, temperature 288 K, read-out: KD): 2.3 ± 0.1 µM | N ([2]; S3 Table, temperature 293 K): 1.1±0.1 | ΔG ([2]; S3 Table, temperature 293 K): -7.6 ± 0.7 kcal/mol | ΔH ([2]; S3 Table, temperature 293 K): -4.7 ± 0.7 kcal/mol | −TΔS ([2]; S3 Table, temperature 293 K): -2.9 ± 0.8 kcal/mol | Kd ([2]; S3 Table, temperature 293 K, read-out: KD): 2.1 ± 0.7 µM | N ([2]; S3 Table, temperature 298 K): 1.1±0.1 | ΔG ([2]; S3 Table, temperature 298 K): -7.8 ± 0.4 kcal/mol | ΔH ([2]; S3 Table, temperature 298 K): -5.7 ± 0.7 kcal/mol | −TΔS ([2]; S3 Table, temperature 298 K): -2.1 ± 0.6 kcal/mol | Kd ([2]; S3 Table, temperature 298 K, read-out: KD): 2 ± 0.4 µM | N ([2]; S3 Table, temperature 303 K): 1.1±0.1 | ΔG ([2]; S3 Table, temperature 303 K): -7.9 ± 0.8 kcal/mol | ΔH ([2]; S3 Table, temperature 303 K): -6.1 ± 0.2 kcal/mol | −TΔS ([2]; S3 Table, temperature 303 K): -1.8 ± 0.3 kcal/mol | Kd ([2]; S3 Table, temperature 303 K, read-out: KD): 2.1 ± 0.8 µM | ΔH/ΔG ([2]; Table 1, ITC, 298 K): 61% | ΔG [2, 5]: -7.7 ± 0.1 kcal/mol | ΔH [2, 5]: -4.7 ± 0.6 kcal/mol | −TΔS [2, 5]: -3.0 ± 0.6 kcal/mol | N (number of binding sites) [2, 6]: 1.1 ± 0.1 | Kd [2, 7]: 2.2 ± 0.3 µM | ΔG [2, 9]: -7.7 ± 0.1 kcal/mol | −TΔS [2, 9]: -3.0 ± 0.6 kcal/mol | N (number of binding sites) ([2]; Table 2, methylated catechin derivatives, ITC, 298 K, 50 mM sodium phosphate pH 6.8): 1.1 ± 0.1 | Kd ([2]; Table 2, methylated catechin derivatives, ITC, 298 K, 50 mM sodium phosphate pH 6.8, read-out: KD): 2.2 ± 0.3 µM | ΔCp (change in heat capacity) ([2]; slope of ΔH versus temperature, 288 to 303 K): −148 cal mol^−1 K^−1

From PMC6181319, “Thermodynamic and computational analyses reveal the functional roles of the galloyl group of tea catechins in molecular recognition” (PLoS ONE, 2018)
